Assays:
[1] = system: Tyrosine-protein kinase ABL1 (Homo sapiens), P00519 [H396P]; conditions: Compound concentration 1000.0 nM
[2] = target: SRSF protein kinase 1 (Homo sapiens) (UniProt Q96SB4); conditions: Compound concentration 1000.0 nM
[3] = target: Serine/threonine-protein kinase PAK 1 (Homo sapiens) (UniProt Q13153); conditions: Compound concentration 1000.0 nM
[4] = target: Tyrosine-protein kinase receptor Tie-1 (Homo sapiens) (UniProt P35590); conditions: Compound concentration 1000.0 nM
Sequence of Tyrosine-protein kinase receptor Tie-1 (Homo sapiens) (P35590 whole entry): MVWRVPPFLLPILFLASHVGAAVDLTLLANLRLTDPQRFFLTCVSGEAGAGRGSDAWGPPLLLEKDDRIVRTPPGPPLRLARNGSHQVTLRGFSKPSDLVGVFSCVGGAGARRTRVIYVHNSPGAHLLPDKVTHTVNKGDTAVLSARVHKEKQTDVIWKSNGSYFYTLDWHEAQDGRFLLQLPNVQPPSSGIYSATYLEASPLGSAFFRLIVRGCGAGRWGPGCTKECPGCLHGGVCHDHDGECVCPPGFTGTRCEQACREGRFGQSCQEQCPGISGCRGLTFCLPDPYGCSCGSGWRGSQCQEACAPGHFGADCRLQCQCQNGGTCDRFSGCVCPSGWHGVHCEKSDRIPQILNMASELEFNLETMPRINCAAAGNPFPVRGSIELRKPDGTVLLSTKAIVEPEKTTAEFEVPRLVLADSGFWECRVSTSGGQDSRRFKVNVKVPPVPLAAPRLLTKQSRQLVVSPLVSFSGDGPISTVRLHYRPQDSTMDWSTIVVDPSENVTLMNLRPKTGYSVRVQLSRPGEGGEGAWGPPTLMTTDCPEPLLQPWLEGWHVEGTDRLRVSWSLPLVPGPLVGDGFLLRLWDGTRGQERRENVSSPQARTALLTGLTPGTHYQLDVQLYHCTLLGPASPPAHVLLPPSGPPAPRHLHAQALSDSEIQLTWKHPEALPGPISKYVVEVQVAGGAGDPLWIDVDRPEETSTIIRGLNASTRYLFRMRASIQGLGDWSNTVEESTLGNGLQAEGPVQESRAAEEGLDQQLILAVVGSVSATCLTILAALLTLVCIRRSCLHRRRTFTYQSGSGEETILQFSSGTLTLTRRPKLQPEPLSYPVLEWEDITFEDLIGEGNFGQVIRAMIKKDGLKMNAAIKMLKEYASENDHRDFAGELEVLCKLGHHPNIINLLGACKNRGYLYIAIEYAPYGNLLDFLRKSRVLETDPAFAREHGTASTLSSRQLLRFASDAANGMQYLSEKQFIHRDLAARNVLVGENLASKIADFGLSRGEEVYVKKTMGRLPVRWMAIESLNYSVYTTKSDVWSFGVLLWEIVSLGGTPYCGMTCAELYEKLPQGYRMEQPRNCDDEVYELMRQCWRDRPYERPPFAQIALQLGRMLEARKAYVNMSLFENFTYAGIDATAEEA

[5] = target: Phosphatidylinositol 3-kinase catalytic subunit type 3 (Homo sapiens) (UniProt Q8NEB9); conditions: Compound concentration 1000.0 nM
Sequence of Phosphatidylinositol 3-kinase catalytic subunit type 3 (Homo sapiens) (Q8NEB9 whole entry): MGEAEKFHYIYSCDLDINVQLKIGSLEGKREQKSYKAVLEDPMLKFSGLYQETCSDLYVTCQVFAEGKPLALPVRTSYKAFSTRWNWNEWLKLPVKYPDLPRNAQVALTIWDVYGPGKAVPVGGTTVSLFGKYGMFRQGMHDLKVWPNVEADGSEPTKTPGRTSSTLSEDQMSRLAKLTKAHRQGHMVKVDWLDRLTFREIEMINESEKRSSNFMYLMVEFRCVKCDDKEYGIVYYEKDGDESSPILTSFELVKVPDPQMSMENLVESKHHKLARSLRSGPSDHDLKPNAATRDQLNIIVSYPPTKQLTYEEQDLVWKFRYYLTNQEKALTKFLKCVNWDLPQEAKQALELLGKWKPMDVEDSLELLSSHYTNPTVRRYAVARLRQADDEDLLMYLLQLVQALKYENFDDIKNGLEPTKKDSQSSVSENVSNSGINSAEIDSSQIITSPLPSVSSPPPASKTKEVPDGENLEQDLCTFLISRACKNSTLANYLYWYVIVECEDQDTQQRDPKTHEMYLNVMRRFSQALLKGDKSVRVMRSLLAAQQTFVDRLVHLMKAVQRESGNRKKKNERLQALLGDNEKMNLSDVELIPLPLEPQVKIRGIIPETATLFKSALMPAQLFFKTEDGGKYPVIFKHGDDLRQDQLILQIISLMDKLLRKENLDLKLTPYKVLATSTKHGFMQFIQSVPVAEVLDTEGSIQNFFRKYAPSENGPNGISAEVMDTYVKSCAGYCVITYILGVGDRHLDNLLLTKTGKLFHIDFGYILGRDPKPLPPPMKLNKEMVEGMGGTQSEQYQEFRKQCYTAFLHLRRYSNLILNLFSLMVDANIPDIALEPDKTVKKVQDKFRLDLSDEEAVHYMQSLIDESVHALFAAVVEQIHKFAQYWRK

[6] = target: Tyrosine-protein kinase receptor TYRO3 (Homo sapiens) (UniProt Q06418); conditions: Compound concentration 1000.0 nM
[7] = target: Serine/threonine-protein kinase/endoribonuclease IRE1 (Homo sapiens) (UniProt O75460); conditions: Compound concentration 1000.0 nM
[8] = target: Activin receptor type-2B (Homo sapiens) (UniProt Q13705); conditions: Compound concentration 1000.0 nM
[9] = target: Serine/threonine-protein kinase WNK2 (Homo sapiens) (UniProt Q9Y3S1); conditions: Compound concentration 1000.0 nM
[10] = target: Leukocyte tyrosine kinase receptor (Homo sapiens) (UniProt P29376); conditions: Compound concentration 1000.0 nM
[11] = target: Serine/threonine-protein kinase tousled-like 1 (Homo sapiens) (UniProt Q9UKI8); conditions: Compound concentration 1000.0 nM
[12] = target: Serine/threonine-protein kinase Nek1 (Homo sapiens) (UniProt Q96PY6); conditions: Compound concentration 1000.0 nM
[13] = target: Calcium/calmodulin-dependent protein kinase kinase 2 (Homo sapiens) (UniProt Q96RR4); conditions: Compound concentration 1000.0 nM
[14] = target: AP2-associated protein kinase 1 (Homo sapiens) (UniProt Q2M2I8); conditions: Compound concentration 1000.0 nM
[15] = target: Serine/threonine-protein kinase Sgk2 (Homo sapiens) (UniProt Q9HBY8); conditions: Compound concentration 1000.0 nM
Sequence of Serine/threonine-protein kinase Sgk2 (Homo sapiens) (Q9HBY8 whole entry): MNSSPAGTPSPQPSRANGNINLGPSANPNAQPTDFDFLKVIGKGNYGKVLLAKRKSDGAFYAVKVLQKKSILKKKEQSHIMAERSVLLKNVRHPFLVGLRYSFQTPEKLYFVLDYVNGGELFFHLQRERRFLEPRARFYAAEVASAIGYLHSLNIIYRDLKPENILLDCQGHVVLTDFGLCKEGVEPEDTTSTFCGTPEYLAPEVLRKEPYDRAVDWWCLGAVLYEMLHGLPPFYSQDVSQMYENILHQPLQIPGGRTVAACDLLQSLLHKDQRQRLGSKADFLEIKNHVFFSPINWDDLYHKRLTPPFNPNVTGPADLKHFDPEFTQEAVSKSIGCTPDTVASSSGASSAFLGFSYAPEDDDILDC

[16] = target: cAMP-dependent protein kinase catalytic subunit alpha (Homo sapiens) (UniProt P17612); conditions: Compound concentration 1000.0 nM
[17] = target: Aurora kinase B (Homo sapiens) (UniProt Q96GD4); conditions: Compound concentration 1000.0 nM
[18] = target: Proto-oncogene tyrosine-protein kinase Src (Homo sapiens) (UniProt P12931); conditions: Compound concentration 1000.0 nM
[19] = target: Phosphatidylinositol 4,5-bisphosphate 3-kinase catalytic subunit gamma isoform (Homo sapiens) (UniProt P48736); conditions: Compound concentration 1000.0 nM
[20] = target: Homeodomain-interacting protein kinase 4 (Homo sapiens) (UniProt Q8NE63); conditions: Compound concentration 1000.0 nM
[21] = target: Ephrin type-A receptor 3 (Homo sapiens) (UniProt P29320); conditions: Compound concentration 1000.0 nM
Sequence of Ephrin type-A receptor 3 (Homo sapiens) (P29320 whole entry, canonical isoform): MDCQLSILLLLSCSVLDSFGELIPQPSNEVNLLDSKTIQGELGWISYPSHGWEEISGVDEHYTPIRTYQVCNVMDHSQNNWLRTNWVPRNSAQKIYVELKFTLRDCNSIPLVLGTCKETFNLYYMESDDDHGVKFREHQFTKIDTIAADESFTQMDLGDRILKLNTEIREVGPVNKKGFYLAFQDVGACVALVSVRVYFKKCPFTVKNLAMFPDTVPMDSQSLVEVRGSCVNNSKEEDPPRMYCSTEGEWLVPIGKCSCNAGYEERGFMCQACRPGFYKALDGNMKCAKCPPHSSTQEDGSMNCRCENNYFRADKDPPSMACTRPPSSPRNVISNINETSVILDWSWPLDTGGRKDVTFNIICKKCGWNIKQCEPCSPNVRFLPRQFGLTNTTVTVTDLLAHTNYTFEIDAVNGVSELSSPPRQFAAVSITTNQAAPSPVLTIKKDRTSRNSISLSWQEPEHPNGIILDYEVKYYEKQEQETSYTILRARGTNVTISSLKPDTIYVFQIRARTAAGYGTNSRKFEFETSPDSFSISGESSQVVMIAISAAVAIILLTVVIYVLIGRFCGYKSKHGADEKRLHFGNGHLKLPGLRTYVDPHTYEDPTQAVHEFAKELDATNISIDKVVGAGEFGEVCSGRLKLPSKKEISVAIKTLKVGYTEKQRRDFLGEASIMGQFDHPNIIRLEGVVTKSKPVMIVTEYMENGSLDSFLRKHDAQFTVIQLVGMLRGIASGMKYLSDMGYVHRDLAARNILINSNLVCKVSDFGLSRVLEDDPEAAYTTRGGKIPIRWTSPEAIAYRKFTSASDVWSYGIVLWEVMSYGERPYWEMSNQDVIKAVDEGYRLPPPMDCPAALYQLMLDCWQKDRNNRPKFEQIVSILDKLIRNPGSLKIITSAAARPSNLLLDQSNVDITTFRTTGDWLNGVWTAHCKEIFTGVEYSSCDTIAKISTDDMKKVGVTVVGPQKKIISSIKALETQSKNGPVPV

[22] = system: Phosphatidylinositol 4,5-bisphosphate 3-kinase catalytic subunit alpha isoform (Homo sapiens), P42336 [E545A]; conditions: Compound concentration 1000.0 nM
[23] = target: Dual specificity mitogen-activated protein kinase kinase 1 (Homo sapiens) (UniProt Q02750); conditions: Compound concentration 1000.0 nM
[24] = target: NT-3 growth factor receptor (Homo sapiens) (UniProt Q16288); conditions: Compound concentration 1000.0 nM
[25] = system: Mast/stem cell growth factor receptor Kit (Homo sapiens), P10721 [V559D,T670I]; conditions: Compound concentration 1000.0 nM
[26] = target: Myosin light chain kinase (Homo sapiens) (UniProt Q32MK0); conditions: Compound concentration 1000.0 nM
[27] = target: Beta-adrenergic receptor kinase 1 (Homo sapiens) (UniProt P25098); conditions: Compound concentration 1000.0 nM
[28] = target: Serine/threonine-protein kinase 38 (Homo sapiens) (UniProt Q15208); conditions: Compound concentration 1000.0 nM
Sequence of Serine/threonine-protein kinase 38 (Homo sapiens) (Q15208 2-465 limits assumed): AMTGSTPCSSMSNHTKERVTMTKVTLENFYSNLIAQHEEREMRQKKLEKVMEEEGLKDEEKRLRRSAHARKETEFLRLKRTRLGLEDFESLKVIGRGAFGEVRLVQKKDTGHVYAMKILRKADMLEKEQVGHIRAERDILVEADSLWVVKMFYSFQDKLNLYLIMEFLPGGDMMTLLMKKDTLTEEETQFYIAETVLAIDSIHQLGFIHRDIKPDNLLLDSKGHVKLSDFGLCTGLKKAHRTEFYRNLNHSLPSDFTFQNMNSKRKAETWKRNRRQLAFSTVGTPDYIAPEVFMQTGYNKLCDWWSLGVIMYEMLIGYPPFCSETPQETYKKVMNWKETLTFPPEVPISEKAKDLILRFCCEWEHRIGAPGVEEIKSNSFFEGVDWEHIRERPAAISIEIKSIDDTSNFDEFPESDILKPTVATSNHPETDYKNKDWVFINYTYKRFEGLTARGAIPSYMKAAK

[29] = target: Mitogen-activated protein kinase kinase kinase kinase 3 (Homo sapiens) (UniProt Q8IVH8); conditions: Compound concentration 1000.0 nM
[30] = target: Fibroblast growth factor receptor 4 (Homo sapiens) (UniProt P22455); conditions: Compound concentration 1000.0 nM
[31] = target: Mitogen-activated protein kinase kinase kinase 19 (Homo sapiens) (UniProt Q56UN5); conditions: Compound concentration 1000.0 nM
[32] = target: Receptor tyrosine-protein kinase erbB-2 (Homo sapiens) (UniProt P04626); conditions: Compound concentration 1000.0 nM
[33] = target: Phosphatidylinositol 4-phosphate 5-kinase type-1 gamma (Homo sapiens) (UniProt O60331); conditions: Compound concentration 1000.0 nM
[34] = target: Ephrin type-A receptor 7 (Homo sapiens) (UniProt Q15375); conditions: Compound concentration 1000.0 nM
[35] = target: 5-hydroxytryptamine receptor 2B (Homo sapiens) (UniProt P41595); conditions: Compound concentration 10.0 uM
[36] = target: Serine/threonine-protein kinase 10 (Homo sapiens) (UniProt O94804); conditions: Compound concentration 1000.0 nM
[37] = target: 5-hydroxytryptamine receptor 2C (Homo sapiens) (UniProt P28335); conditions: Compound concentration 10.0 uM
[38] = target: Cyclin-dependent kinase-like 1 (Homo sapiens) (UniProt Q00532); conditions: Compound concentration 1000.0 nM
Sequence of Cyclin-dependent kinase-like 1 (Homo sapiens) (Q00532 whole entry): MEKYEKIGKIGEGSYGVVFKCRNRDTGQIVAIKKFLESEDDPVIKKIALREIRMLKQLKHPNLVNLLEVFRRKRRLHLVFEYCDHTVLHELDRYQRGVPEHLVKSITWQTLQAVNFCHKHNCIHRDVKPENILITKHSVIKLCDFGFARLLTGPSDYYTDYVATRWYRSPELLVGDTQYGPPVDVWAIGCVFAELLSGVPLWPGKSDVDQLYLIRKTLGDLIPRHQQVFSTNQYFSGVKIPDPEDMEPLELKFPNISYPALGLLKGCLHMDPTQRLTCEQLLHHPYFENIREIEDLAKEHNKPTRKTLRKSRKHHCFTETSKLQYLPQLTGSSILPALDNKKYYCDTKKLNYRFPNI

[39] = system: Hepatocyte growth factor receptor (Homo sapiens), P08581 [Y1235D]; conditions: Compound concentration 1000.0 nM
[40] = target: Dual specificity protein kinase CLK3 (Homo sapiens) (UniProt P49761); conditions: Compound concentration 1000.0 nM

Sequence of SRSF protein kinase 1 (Homo sapiens) (Q96SB4 whole entry): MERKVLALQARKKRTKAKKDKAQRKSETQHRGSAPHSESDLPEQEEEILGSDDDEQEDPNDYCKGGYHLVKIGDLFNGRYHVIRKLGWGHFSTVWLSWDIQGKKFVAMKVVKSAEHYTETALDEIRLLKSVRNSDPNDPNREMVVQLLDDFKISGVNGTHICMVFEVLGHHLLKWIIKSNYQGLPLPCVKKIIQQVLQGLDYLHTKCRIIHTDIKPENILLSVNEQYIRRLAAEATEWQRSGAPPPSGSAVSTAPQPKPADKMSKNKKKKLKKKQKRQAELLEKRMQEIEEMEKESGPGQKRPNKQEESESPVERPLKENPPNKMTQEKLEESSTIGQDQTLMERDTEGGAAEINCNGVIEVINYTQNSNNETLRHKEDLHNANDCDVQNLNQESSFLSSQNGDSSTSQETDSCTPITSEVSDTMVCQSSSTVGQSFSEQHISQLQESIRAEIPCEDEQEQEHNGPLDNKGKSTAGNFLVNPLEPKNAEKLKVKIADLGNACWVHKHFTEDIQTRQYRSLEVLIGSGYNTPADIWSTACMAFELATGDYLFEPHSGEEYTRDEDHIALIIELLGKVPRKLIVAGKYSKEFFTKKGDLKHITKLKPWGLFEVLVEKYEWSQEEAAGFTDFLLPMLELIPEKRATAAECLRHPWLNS

Structure (SMILES)	residual activity [1] [%]	residual activity [2] [%]	residual activity [3] [%]	residual activity [4] [%]	residual activity [5] [%]	residual activity [6] [%]	residual activity [7] [%]	residual activity [8] [%]	residual activity [9] [%]	residual activity [10] [%]	residual activity [11] [%]	residual activity [12] [%]	residual activity [13] [%]	residual activity [14] [%]	residual activity [15] [%]	residual activity [16] [%]	residual activity [17] [%]	residual activity [18] [%]	residual activity [19] [%]	residual activity [20] [%]	other results
C[C@H](NC(=O)c1cnc2n1[C@](C)(Cc1ccc(C#N)cc1)C(=O)N2c1cc(Cl)c(F)c(Cl)c1)C(=O)NC1(c2ccccn2)CC1 [BI 1950]	91	81	95	100	100	100	96	100	100	100	100	59	100	100	94	100	100	100	86	100	residual activity [21]: 88%; residual activity [22]: 100%; residual activity [23]: 92%; residual activity [24]: 100%; residual activity [25]: 100%; residual activity [26]: 100%; residual activity [27]: 100%; residual activity [28]: 96%; residual activity [29]: 100%; residual activity [30]: 100%; residual activity [31]: 100%; residual activity [32]: 100%; residual activity [33]: 80%; residual activity [34]: 84%; inhibition [35]: 17.2%; residual activity [36]: 100%; inhibition [37]: 24.3%; residual activity [38]: 73%; residual activity [39]: 100%; residual activity [40]: 96%
C[C@@]1(Cc2ccc(C#N)cc2)C(=O)N(c2cc(Cl)cc(Cl)c2)c2ncc(C(=O)NC3(c4nc(C5CCC5)no4)CC3)n21 [BI 9446]	96	94	99	100	100	100	82	100	100	100	100	48	100	100	100	100	100	98	95	100	residual activity [21]: 83%; residual activity [22]: 100%; residual activity [23]: 97%; residual activity [24]: 100%; residual activity [25]: 100%; residual activity [26]: 87%; residual activity [27]: 100%; residual activity [28]: 100%; residual activity [29]: 78%; residual activity [30]: 96%; residual activity [31]: 100%; residual activity [32]: 100%; residual activity [33]: 100%; residual activity [34]: 92%; inhibition [35]: 15.5%; residual activity [36]: 100%; inhibition [37]: 32.9%; residual activity [38]: 100%; residual activity [39]: 100%; residual activity [40]: 100%
